# Laboratory results reported in patent publication US20140323488A1, “DISUBSTITUTED TRIAZINE DIMERS FOR TREATMENT AND/OR PREVENTION OF INFECTIOUS DISEASES” (Universiteit Antwerpen, priority 2011, published 2014).
# Tests used:
# Format in all cases: cell-based
# [1] = target: Trypanosoma cruzi, Tulahuen CL2, β galactosidase strain; test: In vitro anti-Trypanosoma cruzi activity; settings: read-out: T. cruz. IC50
# Method: In Vitro Anti-Trypanosoma cruzi Activity
# All cultures and assays were conducted under a humidified atmosphere (37° C., 5% CO2). […] The change in color was measured spectrophotometrically at 540 nm after 4 h at 37° C. […] Benznidazole was included as reference drug.
# [2] = test system: Leishmania infantum MHOM/MA (BE)/67; test: In vitro anti-Leishmania infantum activity; settings: read-out: L. inf. IC50
# Method: In Vitro Anti-Leishmania infantum Activity
# Leishmania infantum MHOM/MA (BE)/67 was maintained in the golden hamster and spleen amastigotes were collected for preparing infection inocula. Primary peritoneal mouse macrophages were used as host cells and collected 48 h after peritoneal stimulation with a 2% potato starch suspension. […] After incubation for 120 h in a humidified atmosphere (37° C., 5% CO2), total parasite burdens were microscopically assessed after Giemsa staining. The results were expressed as % reduction in parasite burden compared to untreated control wells and IC50 values were calculated. The extracts were tested using five fourfold dilutions starting with 64 μg/mL.
# TZM-bl cells = test: WST-1 cytotoxicity assay; settings: read-out: CC50 (50% cytotoxic concentration)
# Excerpt: The Water Soluble Tetrazolium-1 (WST-1) Cell Proliferation Assay is a colorimetric assay for the measurement of cell proliferation and viability. The assay is based on the cleavage of the tetrazolium salt WST-1 (4-[3-(4-iodophenyl)-2-(4-nitrophenyl)-2H-5-tetrazolio]-1,3-benzene disulfonate) to a formazan dye by a complex cellular mechanism. This bioreduction is largely dependent on the glycolytic production of NAD(P)H in viable cells. Therefore, the amount of formazan dye formed correlates directly to the number of viable cells in the culture, and can be quantified by measuring the absorbance at 450 nm in a multiwell plate reader. The greater the number of viable cells, the greater the amount of formazan dye produced following the addition of WST-1. Cytotoxicity of each compound was evaluated using this WST-1 viability assay, according to the manufacturer's instructions (Roche, Vilvoorde, Belgium).
# Briefly, ten thousand TZM-bl cells were seeded in a 96-well plate and cultured for 2 days in the presence of a serial dilution of compound. After this 48 h exposure, Cell Proliferation Reagent, WST-1, was added and absorbance at 450 nm was quantified after 90 min using a microplate reader (BioRad, Tokio, Japan). Each compound was tested in three replicate wells and in at least two independent experiments.
# [3] = test system: Human lung fibroblast MRC-5SV2 cells; test: Cytotoxicity assay on MRC-5SV2 cells (resazurin)
# Method: Assays were performed in 96-well microtiter plates, each well containing 1×10^4 cells. […] After incubation for 72 h in a humidified atmosphere (37° C., 5% CO2) and addition of resazurin, the cell viability was assessed fluorimetrically (λex 550 nm, λem 590 nm). The results were expressed as % reduction in cell growth/viability compared to untreated control wells and IC50 values were determined. Tamoxifen was included as reference drug.
# HIV-1 BaL = test: TZM-bl assay, anti-HIV-1 activity; settings: read-out: EC50 (50% effective concentration), anti-HIV-1 activity; TZM-bl cells
# Method: The JC53-BL cell line, also known as the TZM-bl cell line (NIH AIDS Research and Reference Reagent Program, Germantown, USA), was used for the evaluation of anti-HIV activity. […] The resulting cell suspension was washed with an equivalent amount of TZM-bl medium and subsequently seeded in a T75 culture flask (Greiner Bio-One, Germany) at 10^6 cells in 20 mL medium.
# The antiviral activity of the newly designed compounds was measured by pre-incubating ten thousand TZM-bl cells (at 10^5 cells/mL in culture medium supplemented with 30 μg/mL DEAE dextran) in a 96-well plate for 30 minutes at 37° C., 5% CO2 in the presence or absence of serial dilutions of the respective compound. Subsequently, 200 TCID50 of HIV-1 BaL was added to each well and cultures were incubated for 48 hours before quantifying luciferase activity, using a TriStar LB941 luminometer (Berthold Technologies GmbH & Co. KG, Bad Wildbad, Germany). Each condition was evaluated in triplicate wells and in at least two independent experiments. The antiviral activity of the compound was expressed as the percentage of viral inhibition compared to the untreated controls and subsequently plotted against the compound concentration.
# [4] = test system: Trypanosoma b. brucei Squib 427; test: In vitro anti-Trypanosoma brucei brucei activity; settings: read-out: T. bruc. IC50
# Method: In Vitro Anti-Trypanosoma brucei brucei Activity:
# After incubation in a humidified atmosphere (37° C., 5% CO2) for 72 h, resazurin was added for another 24 h and parasite growth was assessed fluorimetrically (λex 550 nm, λem 590 nm). […] Suramin was included as reference drug.
# P. falciparum = test: In vitro anti-Plasmodium falciparum activity; settings: read-out: Pf-K1 IC50
# Method: In Vitro Anti-Plasmodium falciparum Activity
# All cultures and assays were conducted under a humidified atmosphere (37° C., 4% CO2, 3% O2 and 93% N2) with the assay being an adaptation of the procedure described by Desjardins et al. (12). Assays were performed in 96-well microtiter plates, each well containing 10 μL of the watery extract dilutions together with 190 μL of the malaria parasite inoculum (1% parasitemia, 2% hematocrit). After incubation for 72 h at 37° C., the plates were frozen and stored at −20° C. Upon thawing, 20 μL of each well was transferred into another plate together with 100 μL Malstat® reagent and 20 μL of a 1/1 mixture of PES (phenazine ethosulphate, 2 mg/mL) and NBT (Nitro Blue Tetrazolium Grade III, 0.1 mg/ml). […] The results were expressed as % reduction in parasitemia compared to control wells. The extracts were tested using five 4-fold dilutions starting with 64 μg/mL. Chloroquine was included as reference drug.
# [5] = test system: T. rhodesiense (strain STIB-900); test: In vitro anti-Trypanosoma brucei rhodesiense activity; settings: read-out: T. rhod. IC50
# Method: In Vitro Anti-Trypanosoma brucei rhodesiense Activity
# T. rhodesiense (strain STIB-900) was maintained in HMI-9-medium, supplemented with 10% heat-inactivated FBS. Assays were performed in 96-well microtiter plates, each well containing 10 μL of the extract dilution together with 190 μL of the parasite suspension (2×10^4 parasites/mL). After incubation in a humidified atmosphere (37° C., 5% CO2) for 72 h, resazurin was added for another 6 h and parasite growth was assessed fluorimetrically (λex 550 nm, λem 590 nm). […] Suramin was included as reference drug.
structure (smiles),measurement,setting,value
"Cc1cc(C)c(Nc2nc(Nc3ccc(C#N)cc3)nc(Nc3ccc(Nc4nc(Nc5ccc(C#N)cc5)nc(Nc5c(C)cc(C)cc5C)n4)cc3)n2)c(C)c1 [T12, 4,4′-((6,6′-(1,4-phenylenebis(azanediyl))bis(4-(mesitylamino)-1,3,5-triazine-6,2-diyl))bis(azanediyl))dibenzonitrile]",IC50,[1],> 64 µM
same,IC50,[2],> 64 µM
same,CC50,TZM-bl cells,> 100 µM
same,cytotoxicity in comparison with monomer I5,[3],no cytotoxicity
same,IC50,[3]; human cell line MRC5,> 64 µM
same,EC50,HIV-1 BaL,0.167 µM
same,IC50,[4],0.53 µM
same,IC50,P. falciparum,> 64 µM
same,IC50,[5],0.02 µM
